According to patent US5129937A, “Pyridyloxypyrimidine derivatives, preparation process thereof, and herbicidal compositions containing the same as active ingredients” (Mitsui Toatsu Chemicals Incorporated, priority 1989, dated 1992):

Columns and labels:
[1] = test system: ALS (acetolactate synthase); assay: ALS (Acetolactate Synthase) Inhibition Test, barnyardgrass enzyme; format: biochemical; details: enzymoreaction inhibition rate at 10 ppm (5 μg/0.5 ml)
Experimental: (§1) To determine the selectivity in enzyme level between crops and weeds, an ALS inhibition test was conducted using pea as a representative of broadleaf crops and barnyardgrass as a representative of gramineous weeds.
(§2) After seeds of pea and barnyardgrass were allowed to germinate at 25° C. for 8-14 days in a dark place, partially-purified suspensions (Suspensions A) of acetolactate syntase were separately obtained from seedlings in accordance with the method described in the literature, Plant Physiology, 75, 827-831. In a test tube, […], followed by the addition of 0.15 ml of a 20 mM K2 HPO4 solution and 0.25 ml of a reaction substrate medium which consisted of 40 mM of K2 HPO4, 40 mM of sodium pyruvate, 1 mM of TPP, 1 mM of MgCl2 and 20 μM of FAD so that 0.4 ml of a reaction solution (Solution B) was prepared. Added to 0.4 ml of Solution B was 0.1 ml of Suspension A. After the resultant mixture was shaken for 1 hour in a thermostat water bath controlled at 30° C., 50 μl of 6N sulfuric acid were added to terminate the reaction.
(§3) Next, the reaction-terminated liquid mixture was transferred into a thermostat water bath controlled at 60° C. and was heated for 15 minutes. Thereafter, 0.5 ml of a 0.5% creatine solution and 0.5 ml of a 5% alkaline α-naphthol solution were added, and the resultant mixture was maintained at 60° C. for 15 minutes. As a result, the test solution developed a pink-red color. After the above operation, the absorbance of the test solution at 525 nm was measured by a spectrophotometer (Absorbance 1 of Test Compound).
(§4) On the other hand, the absorbance (Absorbance 2 of Blank) of a solution obtained by subjecting a portion of Solution B, said portion being free of the test compound, to the above operation and the absorbance (Absorbance 3 of sulfuric acid terminated) of another solution obtained by subjecting another portion of Solution B, said portion containing 50 μl of 6N sulfuric acid as a test compound, were measured at the same time. […] [formula]

[2] = test system: ALS (acetolactate synthase); assay: ALS (Acetolactate Synthase) Inhibition Test, pea enzyme; format: biochemical; details: enzymoreaction inhibition rate at 10 ppm (5 μg/0.5 ml)
Experimental: as §1, §2, §3, §4

[3] = test system: Barnyardgrass (Echinochloa crus-galli); assay: Upland Soil Application Test; format: in vivo; details: 30 g ai/a; soil application before emergence, wettable powder; observed 30 days later
Experimental: (§5) Resin-made 1/2500-are pots were filled with the soil of an upland field. After they were fertilized, soybean, corn and cotton were seeded and 2-3 cm soil covering was applied. Seeds of redroot pigweed, morningglory (Ipomoea purpurea), common lambsquarters, barnyardgrass, green foxtail, large crabgrass, foxtail meadow and johnsongrass had been uniformly mixed with the soil. They were allowed to germinate in a green house. One day later (before emergence of weeds), a wettable powder prepared from a predetermined amount of each test compound in a similar manner to the method described in Formulation Example 1 was diluted with water and then sprayed evenly at an application rate equal to 10 l per are onto the surface of the soil by means of a pressure-operated ULV (ultra low volume) sprayer. Influence to the crops and weeds were observed 30 days later. The results are shown in Table 3, in which the degree of damages of each test plant and the degree of injury to each crop were determined by comparing the air-dried weights of the test plant and crop with those of the corresponding plant and crop in untreated pots and are shown in accordance with the following standard: […]

[4] = test system: Common lambsquarters; assay: Upland Soil Application Test; format: in vivo; details: 30 g ai/a; soil application before emergence, wettable powder; observed 30 days later
Experimental: as §5

[5] = test system: Crabgrass (Digitaria adsendens); assay: Upland Soil Application Test; format: in vivo; details: 30 g ai/a; soil application before emergence, wettable powder; observed 30 days later
Experimental: as §5

[6] = test system: Foxtail (Setaria viridis); assay: Upland Soil Application Test; format: in vivo; details: 30 g ai/a; soil application before emergence, wettable powder; observed 30 days later
Experimental: as §5

[7] = test system: Foxtail meadow; assay: Upland Soil Application Test; format: in vivo; details: 30 g ai/a; soil application before emergence, wettable powder; observed 30 days later
Experimental: as §5

[8] = test system: Johnsongrass; assay: Upland Soil Application Test; format: in vivo; details: 30 g ai/a; soil application before emergence, wettable powder; observed 30 days later
Experimental: as §5

[9] = test system: Redroot Pigweed; assay: Upland Soil Application Test; format: in vivo; details: 30 g ai/a; soil application before emergence, wettable powder; observed 30 days later
Experimental: as §5

[10] = test system: Corn (Zea maize); assay: Upland Foliar Application Test, crop injury; format: in vivo; details: 30 g ai/a; foliar application at 2-3 leaf stage, emulsion; observed on the 30th day
From the text: (§6) Resin-made 1/10000-are pots were filled with the soil of an upland field. Redroot pigweed, morningglory (Ipomoea pupurea), common lambsquarters, foxtail meadow, johnsongrass, barnyardgrass, green foxtail, large crabgrass, soybean, corn and cotton were separately seeded and were allowed to germinate in a green house. When each plant grew to the stage of 2-3 leaves, an emulsion formulated from a predetermined amount of each test compound in a similar manner to the method described in Formulation Example 11 was diluted with water and then sprayed at a predetermined application rate by means of a pressure-operated ULV (ultra low volume) sprayer. The application rate was controlled at 5 l per are. Influence to the crops and weeds were observed on the 30th day after the spray of the herbicides. The results are shown in Table 4 in which the degree of damages of each test plant and the degree of injury to each crop are shown in a similar manner to Test 2.

[11] = test system: Cotton (Gossypium indicum); assay: Upland Foliar Application Test, crop injury; format: in vivo; details: 30 g ai/a; foliar application at 2-3 leaf stage, emulsion; observed on the 30th day
From the text: as §6

[12] = test system: Soybean (Glycine max); assay: Upland Foliar Application Test, crop injury; format: in vivo; details: 30 g ai/a; foliar application at 2-3 leaf stage, emulsion; observed on the 30th day
From the text: as §6

[13] = test system: Arrowhead sp. (Sagittaria pygmaea); assay: Submerged Soil Treatment Test (Pre-Emergence Treatment); format: in vivo; details: 30 g ai/a, granule, observed 30 days later
Experimental: (§7) 1/5000-are Wagner pots were filled with soil. Seeds or tubers of barnyardgrass, bulrush and Sagittaria pygmaea were seeded or planted under submerged condition. Two pairs of rice seedlings (2-3 leaf stage), which had been reared in advance, were transplanted to each pot and were allowed to germinate in a green house. Each pair consisted of two rice seedlings. On day later (before emergence of weeds), each pot was treated with a granule which had been prepared by processing a predetermined amount of the test composition in accordance with a similar method to the method described in Formulation Example 9. The state of emergence of weeds and the state of injury of rice were observed 30 days later. In the table, the degrees of damages of the test plants and the degrees of injury of rice are shown in a similar manner to Example 2.

[14] = test system: Barnyardgrass (Echinochloa crus-galli); assay: as above; format: in vivo; details: 30 g ai/a, granule, observed 30 days later
Experimental: as §7

[15] = test system: Bulrush (Scirpus juncoides); assay: as above; format: in vivo; details: 30 g ai/a, granule, observed 30 days later
Experimental: as §7

| Compound | Inhibition rate (%) Barnyardgrass [1] | Inhibition rate (%) Pea [2] | Herbicidal effects Barnyardgrass (Echinochloa crus-galli) [3] | Herbicidal effects Common lambquarters [4] | Herbicidal effects Crabgrass (Digitaria adsendens) [5] | Herbicidal effects Foxtail (Setaria viridis) [6] | Herbicidal effects Foxtail meadow [7] | Herbicidal effects Johnsongrass [8] | Herbicidal effects Redroot Pigweed [9] | Crop injury Corn (Zea maize) [10] | Crop injury Cotton (Gossypium indicum) [11] | Crop injury Soybean (Glycine max) [12] | Herbicidal effects Arrowhead sp. (Sagittaria pygmaea) [13] | Herbicidal effects Barnyardgrass (Echinochloa crus-galli) [14] | Herbicidal effects Bulrush (Scirpus juncoides) [15] |
| --- | --- | --- | --- | --- | --- | --- | --- | --- | --- | --- | --- | --- | --- | --- | --- |
| CCOC(=O)c1ncccc1Oc1nc(OC)cc(OC)n1 [A, reference compound] | 5% | 52% | 3 (11-40 (Medium damages)) | 4 (6-10 (Severe damages)) | 4 (6-10 (Severe damages)) | 5 (0-5 (Death)) | 5 (0-5 (Death)) | 5 (0-5 (Death)) | 4 (6-10 (Severe damages)) | 5 (0-5 (Death)) | 5 (0-5 (Death)) | 5 (0-5 (Death)) | 4 (6-10 (Severe damages)) | 5 (0-5 (Death)) | 5 (0-5 (Death)) |
| COc1cc(OC)nc(Oc2ccccc2C=O)n1 [B, reference compound] | 98% | 72% | 3 (11-40 (Medium damages)) | 3 (11-40 (Medium damages)) | 4 (6-10 (Severe damages)) | 4 (6-10 (Severe damages)) | 4 (6-10 (Severe damages)) | 4 (6-10 (Severe damages)) | 3 (11-40 (Medium damages)) | 5 (0-5 (Death)) | 5 (0-5 (Death)) | 5 (0-5 (Death)) | 5 (0-5 (Death)) | 3 (11-40 (Medium damages)) | 3 (11-40 (Medium damages)) |
| COc1cc(OC)nc(Oc2cccnc2C=O)n1 [Compound No. 1, 4,6-dimethoxy-2-(2-formyl-3-pyridyloxy)pyrimidine] | 100% | 3% | 3 (11-40 (Medium damages)) | 2 (41-70 (Small damages)) | 2 (41-70 (Small damages)) | 3 (11-40 (Medium damages)) | 3 (11-40 (Medium damages)) | 4 (6-10 (Severe damages)) | 3 (11-40 (Medium damages)) | 0 (91-100 (No damages)) | 0 (91-100 (No damages)) | 1 (71-90 (Slight damages)) | 4 (6-10 (Severe damages)) | 4 (6-10 (Severe damages)) | 4 (6-10 (Severe damages)) |
| COc1cc(OC)nc(Oc2cccnc2C(OC)OC)n1 [Compound No. 2, 3-(4.6-dimethoxy-2-pyrimidinyloxy)-2-pyridinecarboxaldehyde dimethylacetal] | 81% | 0% | 4 (6-10 (Severe damages)) | 5 (0-5 (Death)) | 5 (0-5 (Death)) | 5 (0-5 (Death)) | 5 (0-5 (Death)) | 5 (0-5 (Death)) | 4 (6-10 (Severe damages)) | 0 (91-100 (No damages)) | 0 (91-100 (No damages)) | 0 (91-100 (No damages)) | 5 (0-5 (Death)) | 5 (0-5 (Death)) | 5 (0-5 (Death)) |
| CCOC(OCC)c1ncccc1Oc1nc(OC)cc(OC)n1 [Compound No. 3, 3-(4,6-dimethoxy-2-pyrimidinyloxy)-2-pyridinecarboxaldehyde diethylacetal] | 84% | 0% | 4 (6-10 (Severe damages)) | 5 (0-5 (Death)) | 4 (6-10 (Severe damages)) | 4 (6-10 (Severe damages)) | 5 (0-5 (Death)) | 5 (0-5 (Death)) | 5 (0-5 (Death)) | 0 (91-100 (No damages)) | 0 (91-100 (No damages)) | 0 (91-100 (No damages)) | 5 (0-5 (Death)) | 5 (0-5 (Death)) | 5 (0-5 (Death)) |
| CCCCOC(OCCCC)c1ncccc1Oc1nc(OC)cc(OC)n1 [Compound No. 4] | 94% | 0% | 5 (0-5 (Death)) | 5 (0-5 (Death)) | 5 (0-5 (Death)) | 5 (0-5 (Death)) | 5 (0-5 (Death)) | 5 (0-5 (Death)) | 5 (0-5 (Death)) | 0 (91-100 (No damages)) | 0 (91-100 (No damages)) | 0 (91-100 (No damages)) | 5 (0-5 (Death)) | 5 (0-5 (Death)) | 5 (0-5 (Death)) |
